Results as given in patent publication US20110059983A1, “USE OF SUBSTITUTED OXINDOLE DERIVATIVES FOR THE TREATMENT AND PROPHYLAXIS OF PAIN” (Abbott GmbH & Co. KG, priority 2009, published 2011).

Tested on: Chung model (spinal nerve ligation rats)
Experiment: Tactile allodynia test after spinal nerve ligation (SNL, Chung model)
Assay type: in vivo, rat
Details: 3, 10 and 30 mg/kg po in saline, administered 1 hour prior to the tactile allodynic test
From the text: SNL surgery: For spinal nerve ligation surgery, rats were anesthetized with isoflurane gas. […] The hair at the surgical site was clipped and disinfected with alcohol and betadine. Body temperature was maintained during surgery by using a heating pad. A skin incision (approximately 3 cm) was made on the dorsal midline, using the level of the iliac crests as the midpoint of the incision. At the mid-sacral region, on the left side of the vertebral column (in the sagittal plane), a #15 scalpel blade was used to cut the muscles close to the vertebral body until the blade hits the sacrum bone. A retractor system was used to expose the area from the sacro-iliac rim to about 2 cm of the lateral vertebral column. Using rongeurs, the facet joint was removed followed by the L6 transverse process. A glass hook was used to isolate and tightly ligate L5 and L6 with 6-0 silk suture. The muscle was then sutured using 4-0 silk suture. The skin was closed using wound clips.
Tactile allodynia test: The rats were placed on testing stands with screens under their feet. von Frey filaments eliciting various forces (up to 15 g) were applied to the paws, starting with a filament of 4.31 g and proceeding with alternating lighter and heavier filaments. The measured variable is the 50% withdrawal threshold (PWT) and is calculated from the up-down formula in Chaplan et al. 1994.

Structure (SMILES): CCOc1ncccc1C1(NC(=O)N2CCN(C3CCN(C)CC3)CC2)C(=O)N(S(=O)(=O)c2ccc(OC)cc2OC)c2ccc(Cl)cc21 (stereo not shown) [compound 1]
- 50% paw withdrawal threshold (PWT): dose-dependently increased the withdrawal threshold
